Laboratory results taken from patent US20250346588A1, “IMIDAZOPYRIDINE AND OXAZOLOPYRIDINE DERIVATIVES AND ANALOGS THEREOF, METHODS OF PREPARATION THEREOF, METHODS OF HIF-1/2A PATHWAY INHIBITION, AND INDUCTION OF FERROPTOSIS” (KUDA THERAPEUTICS, INC., priority 2022, published 2025).

Assays:
786-0 cells = assay: Resazurin cell viability assay, with or without DFO and other inhibitors; assay type: cell-based, human
Description: (§1) Screens for inhibitory activity of compounds described herein were performed using 786-0 ccRCC cells that stably express HRE-Luc: 5 copies of the hypoxia-responsive element (HRE) fused to the pGL3 luciferase reporter (Promega Corp, Madison WI). 786-0 cells are pVHL deficient and thus constitutively express HIF-2α independently of cellular oxygen tension. Since 786-0 cells lack HIF-1α, HRE-driven luciferase activity is primarily HIF-2α driven, and has been previously validated. Cells were maintained at log phase growth in […] (DMEM) with 10% FBS in a humidified incubator at 37° C. with 5% CO2. For screening assays, cells were seeded at a density of 4,000 cells in 50 μl of complete media/well in quadruplicate wells/point in a 96-well plate. After 24 h, 50 μl of a 2× concentration of test compound was added to each well. Compounds were diluted from a 5-10 mM stock in DMSO and final concentrations of DMSO in each well in controls and treated wells were kept constant at ≤0.6% DMSO. After 24 h treatment, luciferase activity was measured using the Steady-Glo Luciferase assay system (Promega Corp) according to the manufacturer's protocol. Cell viability was measured in quadruplicate parallel wells using resazurin as recommended by the manufacturer (R&D systems, Minneapolis, MN). Data for luciferase and resazurin were normalized to DMSO treated controls (defining 100%) and wells containing assay reagent but no cells (defining 0%) and graphed using the log inhibitor versus normalized response option in Graphpad Prism 9.3.1 software. Representative data determined using Steady-Glo luciferase and resazurin are shown in FIGS. 1A and 1B respectively, with error bars showing SD. Filled diamonds, empty squares and empty triangles indicate treatment with 3, 8 and 22 respectively with results for HRE-Luc shown in FIG. 1A.
In view of the increased cellular iron concentrations induced by the compounds described herein, the involvement of iron in mediating cell death was determined. Cell viability assays were performed as described in Example 2 using resazurin as a cell viability readout and performed in the absence or presence of 100 μM of the iron chelator, DFO (D9533, MilliporeSigma, St Louis, MO). […] Viability IC50 values are shown in brackets.

Bioavailability studies = assay type: in vivo; conditions: mouse, in vivo, Swiss albino mice
[1] = test system: RCC10 or 786-0 cells with stable overexpression of empty vector or ISCA2; assay: Cell viability with ISCA2 overexpression; assay type: cell-based, human; conditions: 24h
[2] = test system: HIF target genes VEGFA and POU5F1; assay: qPCR of HIF target genes; assay type: cell-based, human; conditions: FIG. 2C
Description: For qPCR, cells seeded as described above were harvested for RNA isolation using the RNA Clean and Concentrator kit (Zymo Research, Irvine CA) according to the manufacturer's protocol. cDNA was prepared using the High Capacity […] kit from Thermo Fisher Scientific (Waltham, […]). qRT-PCR was performed using pre-designed Taqman Gene Expression assay primer/probes and master mix (Thermo Fisher Scientific) according to the manufacturer's protocol using the QuantStudio 3 Real-Time PCR System (ThermoFisher). Relative changes in gene expression normalized to the control gene, […] was determined using the ΔΔCt method.

[3] = test system: RCC4 or 786-0 cells±pVHL re-expression; assay: Cell viability with pVHL re-expression; assay type: cell-based, human; conditions: 48h
[4] = test system: HIF-2α Iron-Responsive Element (IRE); assay: HIF-2α IRE-Luc reporter assay; assay type: cell-based, human; conditions: 786-0 cells stably expressing HIF-2α IRE-Luc, 24h
Description: as §1, with “Compounds were diluted from a 5-10 mM stock in DMSO and final concentrations of DMSO in each well in controls and treated wells were kept constant at ≤0.6% DMSO.” left out, “Data for luciferase and resazurin were normalized to DMSO treated controls (defining 100%) and wells containing assay reagent but no cells (defining 0%) and graphed using the log inhibitor versus normalized response option in Graphpad Prism 9.3.1 software.” left out, “Filled diamonds, empty squares and empty triangles indicate treatment with 3, 8 and 22 respectively with results for HRE-Luc shown in FIG. 1A.” left out

COc1ccc(-c2nnc(Nc3nc4c(OC)nccc4[nH]3)o2)cc1OC [Compound 26HCL, N-(4-Methoxy-1H-imidazo[4,5-c]pyridin-2-yl)-5-(3,4-dimethoxyphenyl)-1,3,4-oxadiazol-2-amine]
mechanism of cell death (786-0 cells; 24h, co-treatment with DFO, NAC, liproxstatin or ZVAD-FMK): iron-oxidant dependent and apoptosis/caspase-independent mechanism of cell death
effect of DFO co-treatment on compound-mediated loss of cell viability (786-0 cells; DFO 100 μM, FIG. 4B): protective effects of DFO
bioavailability (Bioavailability studies; oral, read-out: Bioavailability F): 27.3%
half-life (Bioavailability studies; read-out: half-life (converted)): 3.61 h
effect of ISCA2 overexpression on cell viability response to compound [1]: ISCA2 overexpression promotes resistance
effect on transcription of HIF target genes (VEGFA, POU5F1) [2]: decrease transcription of HIF target genes
effect of pVHL re-expression on cell viability response to compound [3]: re-expression of pVHL promotes resistance
effect on IRE-luciferase reporter activity normalized to resazurin [4]: decrease IRE-mediated translation of HIF-2α
